Read-outs that look alike come from different tables or passages of the source.
Experiments:
in vitro [1] = settings: for half-life at 5 μM: plasma; for Human Plasma Stability t½ min: 37° C., 5 μM, t½ > 240 min considered stable
Method: Rat and human plasma were obtained from qualified vendors. […] The assay was performed in duplicate.

in vitro [2] = settings: human, Caco-2, pH 7.4
Method: The objective of this study was to evaluate the bidirectional permeability and absorption mechanisms of the test compounds. CaCO-2 cells were cultured, and a monolayer was developed in-house in 96 well-plates over 18 days using standard protocol. The monolayer was tested for the integrity of the cell monolayer before using.
Test compounds were added to the transwell insert (apical compartment) to determine the rate of drug transport in the apical to basolateral direction. To determine the rate of drug transport in the basolateral to apical direction, the test compound was added to the receiver plate wells (basolateral compartment). Appropriate amount of HBSS (10 mM HEPES, pH 7.4) was added in both compartments for a final volume of 200 μL. The plates were incubated at 37° C. with shaking at 150 rpm on a rotary shaker for 2 hours. At the end of the transport period, 50 μL from the apical and basolateral wells were collected and 4 volume of cold acetonitrile containing internal standards (IS: 100 nM alprazolam, 200 nM labetalol, and 2 μM ketoprofen) was added to each sample to terminate the reaction. The samples were vortexed and centrifuged at 3,800 g for 20 minutes. An aliquot of 150 μL of the supernatant was used for LC/MS/MS analysis. All samples were analyzed in duplicates. Samples were analyzed through LC/MS/MS for estimating the permeability and efflux of the compounds across Caco-2 cell monolayers.

[3] = 37° C., 5 μM; for Chemical Stability, pH 4.5: pH 4.5 PBS; for Chemical Stability, pH 7.4: pH 7.4 PBS
Method: Chemical stability of the prodrug compounds was tested at pH 4.5 and pH 7.4 (pH adjusted in phosphate buffer saline). Both buffer solutions at two pHs were prepared in house. 2 μL of 500 μM stock solution of the prodrug was added to each vial containing 198 μL PBS at pH 7.4 or pH 4.5 and mixed evenly. The assay was performed in duplicate. The final concentration of the test compound was 5 μM. samples were incubated at 37° C. at 600 rpm. […] Samples from individual vials were used for the different time points. The samples were vortexed for 2 minutes and centrifuged at 3,220 g for 5 minutes at 4° C. […] of the supernatant was transferred to a new plate.

in vitro [4] = settings: dog, MDCK
[5] = biological target: Glucocorticoid receptor (GR) (Homo sapiens, UniProt P04150)
Glucocorticoid receptor (GR), sequence (P04150 whole entry, species assumed): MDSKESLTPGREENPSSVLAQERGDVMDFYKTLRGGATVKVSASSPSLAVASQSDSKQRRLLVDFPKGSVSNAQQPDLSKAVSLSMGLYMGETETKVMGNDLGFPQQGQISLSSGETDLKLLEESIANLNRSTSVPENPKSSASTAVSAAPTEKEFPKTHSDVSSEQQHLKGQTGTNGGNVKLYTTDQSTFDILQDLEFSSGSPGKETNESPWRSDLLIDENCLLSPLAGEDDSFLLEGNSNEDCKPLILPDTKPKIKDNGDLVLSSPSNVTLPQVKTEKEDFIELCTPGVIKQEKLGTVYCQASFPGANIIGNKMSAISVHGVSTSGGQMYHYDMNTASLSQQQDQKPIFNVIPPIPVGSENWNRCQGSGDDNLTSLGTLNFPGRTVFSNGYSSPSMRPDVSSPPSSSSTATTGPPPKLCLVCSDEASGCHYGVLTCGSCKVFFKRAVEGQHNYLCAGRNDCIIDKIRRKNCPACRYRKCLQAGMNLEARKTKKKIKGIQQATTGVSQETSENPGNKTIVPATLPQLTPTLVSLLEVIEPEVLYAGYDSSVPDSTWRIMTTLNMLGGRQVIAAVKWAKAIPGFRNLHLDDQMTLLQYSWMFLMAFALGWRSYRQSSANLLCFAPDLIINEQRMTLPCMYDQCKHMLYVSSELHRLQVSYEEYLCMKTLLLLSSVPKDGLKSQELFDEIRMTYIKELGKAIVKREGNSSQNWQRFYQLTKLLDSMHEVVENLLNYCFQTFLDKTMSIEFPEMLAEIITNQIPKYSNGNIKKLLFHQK
Method: Glucocorticoid receptor (GR) binding of prodrugs was determined using TR-FRET GR competitive binding assay. Three-point (0.1, 1 and 10 μM) binding was evaluated for each prodrug.

in vitro [6] = settings: 0.5 mg microsome/mL, 1 mM NADPH; for Rat liver microsomal stability (RLM) t½ min: 1 uM
Method: Precipitated proteins were removed by centrifugation, followed by withdrawing and diluting the supernatant for analysis. Two positive controls and negative controls (without NADPH) were used in the study. All samples were analyzed in duplicates. LC/MS/MS was performed for detection and quantification of the test compounds. Linear regression was determined using the remaining percentage of the parent drug at each incubation time and t1/2 value was calculated.

C[C@@H]1C[C@H]2[C@@H]3CCC4=C/C(=N\NC(=O)[C@H](Cc5ccccc5)N(C)C)C=C[C@]4(C)[C@@]3(F)[C@@H](O)C[C@]2(C)[C@@]1(O)C(=O)CO [Compound IXB]
half-life at 5 μM (in vitro [1]; rat): > 4 h

C[C@@H]1C[C@H]2[C@@H]3CCC4=C/C(=N/NC(=O)[C@@H](N)Cc5ccccc5)C=C[C@]4(C)[C@@]3(F)[C@@H](O)C[C@]2(C)[C@@]1(O)C(=O)CO [Compound VIIA]
Papp A→B at 2 h (in vitro [2]): 0.17 ×10⁻⁶ cm/s
Papp B→A at 2 h (in vitro [2]): 11 ×10⁻⁶ cm/s
half-life at 5 μM (in vitro [1]; rat): > 4 h
Chemical Stability, pH 4.5 [3]: Yes
Chemical Stability, pH 7.4 [3]: Yes
Papp A→B (in vitro [4]): 0.15 ×10⁻⁶ cm/s
Papp B→A (in vitro [4]): 1.29 ×10⁻⁶ cm/s

CC(C)C(N)C(=O)N/N=C1\C=C[C@@]2(C)C(=C1)CC[C@H]1[C@@H]3C[C@@H](C)[C@](O)(C(=O)CO)[C@@]3(C)C[C@H](O)[C@@]12F (single isomer, unassigned) [Compound VB]
Chemical Stability, pH 4.5 [3]: Yes
Chemical Stability, pH 7.4 [3]: Yes

CCC(=O)N/N=C(\CO)[C@@]1(O)[C@H](C)C[C@H]2[C@@H]3CCC4=CC(=O)C=C[C@]4(C)[C@@]3(F)[C@@H](O)C[C@@]21C [Compound II]
half-life at 5 μM (in vitro [1]; human): > 4 h
Chemical Stability, pH 4.5 [3]: Yes
Chemical Stability, pH 7.4 [3]: Yes

CC(C)C(N)C(=O)N/N=C(/CO)[C@@]1(O)[C@H](C)C[C@H]2[C@@H]3CCC4=CC(=O)C=C[C@]4(C)[C@@]3(F)[C@@H](O)C[C@@]21C (single isomer, unassigned) [Compound IVB]
GR Binding Data ([5]; @ 0.1 uM): 3%
GR Binding Data ([5]; @ 1 uM): 16%
GR Binding Data ([5]; @ 10 uM): 72%
Human Plasma Stability t½ min (in vitro [1]): >4 h
Chemical Stability, pH 4.5 [3]: Yes
Chemical Stability, pH 7.4 [3]: Yes
Rat liver microsomal stability (RLM) t½ min (in vitro [6]): 1.8 h

C[C@@H]1C[C@H]2[C@@H]3CCC4=CC(=O)C=C[C@]4(C)[C@@]3(F)[C@@H](O)C[C@]2(C)[C@@]1(O)C(=O)CO [Dexamethasone, reference compound]
GR Binding Data ([5]; @ 1 nM): 16%
GR Binding Data ([5]; @ 10 nM): 50%
GR Binding Data ([5]; @100 nM): 93%

C[C@@H]1C[C@H]2[C@@H]3CCC4=C/C(=N\NC(=O)[C@@H](N)Cc5ccccc5)C=C[C@]4(C)[C@@]3(F)[C@@H](O)C[C@]2(C)[C@@]1(O)C(=O)CO [Compound VIIB]
Papp A→B at 2 h (in vitro [2]): 0.13 ×10⁻⁶ cm/s
Papp B→A at 2 h (in vitro [2]): 9 ×10⁻⁶ cm/s
half-life at 5 μM (in vitro [1]; rat): > 4 h
Chemical Stability, pH 4.5 [3]: Yes
Chemical Stability, pH 7.4 [3]: Yes
Papp A→B (in vitro [4]): 0.12 ×10⁻⁶ cm/s
Papp B→A (in vitro [4]): 0.87 ×10⁻⁶ cm/s

C[C@@H]1C[C@H]2[C@@H]3CCC4=C/C(=N/NC(=S)[C@@H](N)Cc5ccccc5)C=C[C@]4(C)[C@@]3(F)[C@@H](O)C[C@]2(C)[C@@]1(O)C(=O)CO [Compound X]
Papp A→B at 2 h (in vitro [2]): 0.33 ×10⁻⁶ cm/s
Papp B→A at 2 h (in vitro [2]): 4 ×10⁻⁶ cm/s
half-life at 5 μM (in vitro [1]; rat): 2.08 h
Papp A→B (in vitro [4]): < 0.17 ×10⁻⁶ cm/s
Papp B→A (in vitro [4]): 1.82 ×10⁻⁶ cm/s

CC(C)C(N)C(=O)N/N=C1\C=C[C@@]2(C)C(=C1)CC[C@H]1[C@@H]3C[C@@H](C)[C@](O)(C(=O)CO)[C@@]3(C)C[C@H](O)[C@@]12F (single isomer, unassigned) [Compound VA]
half-life at 5 μM (in vitro [1]; rat): > 4 h
Chemical Stability, pH 4.5 [3]: Yes
Chemical Stability, pH 7.4 [3]: Yes
half-life at 1 uM (in vitro [6]; rat, liver microsomes, Rat liver microsomal stability (RLM) t½ min): 0.733 h

CCC(=O)N/N=C1\C=C[C@@]2(C)C(=C1)CC[C@H]1[C@@H]3C[C@@H](C)[C@](O)(C(=O)CO)[C@@]3(C)C[C@H](O)[C@@]12F [Compound I]
half-life at 5 μM (in vitro [1]; human): > 4 h
Chemical Stability, pH 4.5 [3]: Yes
Chemical Stability, pH 7.4 [3]: Yes

CC(C)C(N)C(=O)N/N=C(/CO)[C@@]1(O)[C@H](C)C[C@H]2[C@@H]3CCC4=CC(=O)C=C[C@]4(C)[C@@]3(F)[C@@H](O)C[C@@]21C (single isomer, unassigned) [Compound IVA]
Papp A→B at 2 h (in vitro [2]): 0.2 ×10⁻⁶ cm/s
Papp B→A at 2 h (in vitro [2]): 4 ×10⁻⁶ cm/s
GR Binding Data ([5]; @ 0.1 uM): 4%
GR Binding Data ([5]; @ 1 uM): 8%
GR Binding Data ([5]; @ 10 uM): 64%
half-life at 5 μM (in vitro [1]; human): > 4 h
half-life at 5 μM (in vitro [1]; rat): > 4 h
Chemical Stability, pH 4.5 [3]: Yes
Chemical Stability, pH 7.4 [3]: Yes
Rat liver microsomal stability (RLM) t½ min (in vitro [6]): 0.583 h

C[C@@H]1C[C@H]2[C@@H]3CCC4=CC(=O)C=C[C@]4(C)[C@@]3(F)[C@@H](O)C[C@]2(C)[C@@]1(O)/C(CO)=N\NC(=O)C(N)Cc1ccccc1 (single isomer, unassigned) [Compound IIIA]
half-life at 5 μM (in vitro [1]; human): > 4 h
half-life at 5 μM (in vitro [1]; rat): > 4 h
Chemical Stability, pH 4.5 [3]: Yes
Chemical Stability, pH 7.4 [3]: Yes
Rat liver microsomal stability (RLM) t½ min (in vitro [6]): 0.55 h

C[C@@H]1C[C@H]2[C@@H]3CCC4=C/C(=N\NC(=O)[C@H](N)Cc5ccccc5)C=C[C@]4(C)[C@@]3(F)[C@@H](O)C[C@]2(C)[C@@]1(O)C(=O)CO [Compound VIIIB]
GR Binding Data ([5]; @ 0.1 uM): 19%
GR Binding Data ([5]; @ 1 uM): 26%
GR Binding Data ([5]; @ 10 uM): 72%
half-life at 5 μM (in vitro [1]; rat): > 4 h

C[C@@H]1C[C@H]2[C@@H]3CCC4=CC(=O)C=C[C@]4(C)[C@@]3(F)[C@@H](O)C[C@]2(C)[C@@]1(O)/C(CO)=N\NC(=O)C(N)Cc1ccccc1 (single isomer, unassigned) [Compound IIIB]
GR Binding Data ([5]; @ 0.1 uM): 8%
GR Binding Data ([5]; @ 1 uM): 8%
GR Binding Data ([5]; @ 10 uM): 68%
Human Plasma Stability t½ min (in vitro [1]): >4 h
Chemical Stability, pH 4.5 [3]: Yes
Chemical Stability, pH 7.4 [3]: Yes
Rat liver microsomal stability (RLM) t½ min (in vitro [6]): 1.35 h

C[C@@H]1C[C@H]2[C@@H]3CCC4=C/C(=N/NC(=O)[C@H](Cc5ccccc5)N(C)C)C=C[C@]4(C)[C@@]3(F)[C@@H](O)C[C@]2(C)[C@@]1(O)C(=O)CO [Compound IXA]
half-life at 5 μM (in vitro [1]; rat): > 4 h

From US20260263603A1, “PRODRUGS, PRODRUG COMPOSITIONS AND RELATED METHODS” (Praesidia Biotherapeutics Inc., priority 2023, published 2026)
